Tests used:
[1] = test system: G62 cells; assay: CellTiter Glo cell viability assay, pharmacological SCD1 inhibition; assay type: cell-based, human; details: vs vehicle (DMSO), FIG. 2B
Experimental: For the pharmacological inhibition studies of FIGS. 2B and 2C, an equal number of G62 cells was seeded in 96 wells in the presence of SCD1 inhibitor or vehicle (DMSO) in quadruplicate. Viable cells were quantified at indicated times using CellTiter Glo cell viability assay kit (Promega).

[2] = test system: G68 cells; assay: as above; assay type: cell-based, human; details: vs vehicle (DMSO), FIG. 2C

## Cc1nnc(-c2ccc(N3CCC(Oc4cc(F)ccc4Cl)CC3)nn2)o1 [CAY10566, 3-[4-(2-chloro-5-fluorophenoxy)-1-piperidinyl]-6-(5-methyl-1,3,4-oxadiazol-2-yl)-pyridazine]
[1]
  cell viability in the presence or absence of CAY10566: induction of G62 cell death and growth inhibition
[2]
  cell viability in the presence or absence of CAY10566: induction of G68 cell death and growth inhibition
